# According to patent publication US11992535B2, “Compounds and probes for imaging huntingtin protein” (CHDI Foundation, Inc., priority 2019, dated 2024):
# Like-named read-outs stand apart in the source and are kept apart here.
# Target: aggregated MBP-HTT(1-89)Q46-His(6×) (Exonl-Q46) protein (Q46 protein aggregates) (Homo sapiens (Human), UniProt P42858, INS38QQQQQQQQQQQQQQQQQQQQQQQQQ)
# Assay: Q46 Radioligand Binding Assay
# Conditions: read-out: Q46_RBA EC50_
# Method: Q46 Radioligand Binding Assay
# For radioligand binding assays (RBA) MBP-HTT(1-89)Q46-His(6×) (“Exonl-Q46”) protein was generated based on a previous publication (Scherzinger et al. Cell, Vol. 90, 549-558, Aug. 8, 1997). For experiments 30 μM MBP-Exonl-Q46 was incubated with 150 μg/mL thrombin in assay buffer (150 mM NaCl, 50 mM Tris pH 8.0) and 2 mM CaCl2 for 16 hours at 37° C. Aggregated Exonl-Q46 was pelleted by centrifugation for 5 minutes at 13,000 rpm in a bench top centrifuge and re-dissolved in the same volume of assay buffer. Test compounds were prepared by titration in DMSO at 11 concentrations from 63 μM to 2 nM. For the RBA, Q46 protein aggregates and test compounds were pre-incubated in assay buffer for 20 minutes at room temperature, in 100 μL/well in a 96-well plate (pp, round bottom). Then, ligand was added in 50 μL/well and incubated for 60 minutes at 37° C. Final assay concentrations were 1 μM to 30 μM test compound, 1 μM Exonl-Q46 protein (equivalent monomer concentration) and 0.3 nM ligand [^3H3-methyl]-5-((5-methoxypyridin-2-yl)methoxy)-2-(pyrazin-2-yl)benzo[d]oxazole. Samples were transferred onto GF/B filter plates and washed 2× with 200 μL PBS using a Filtermate Harvester. After drying filter plates for 1 hour at 55° C., the back of the plates were sealed with foil and 30 μL/well scintillation fluid (Packard MicroScint 40) added, incubated for 15 minutes in the dark and counted in a MicroBeta reader. For analysis, replicate data from independent assay plates were normalized towards 0% and 100% inhibition using control wells of vehicle (0% inhibition) and 1 μM unlabelled [^3H3-methyl]-5-((5-methoxypyridin-2-yl)methoxy)-2-(pyrazin-2-yl)benzo[d]oxazole (100% inhibition). IC50 values were determined with a sigmoidal inhibition model with four variables (top, bottom, slope, IC50) in a global fit using the normalized replicate data.
# [1] = displacement of 0.3 nM [3H3-methyl]-5-((5-methoxypyridin-2-yl)methoxy)-2-(pyrazin-2-yl)benzo[d]oxazole from 1 μM Exonl-Q46 aggregates, method calls the values IC50
# [2] = same radioligand displacement on Exonl-Q46 aggregates
# Chain of aggregated MBP-HTT(1-89)Q46-His(6×) (Exonl-Q46) protein (Q46 protein aggregates) (P42858 other isoform, or with tags, fused parts or gaps, stated change not applied): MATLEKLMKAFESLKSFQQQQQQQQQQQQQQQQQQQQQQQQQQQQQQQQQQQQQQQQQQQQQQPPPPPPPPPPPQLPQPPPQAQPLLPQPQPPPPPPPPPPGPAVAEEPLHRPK
Structure (SMILES),EC50 [1] [nM],EC50 [2] [nM]
COc1ccc(COc2ccc3c(c2)CN(C(=O)N2CC4(COC4)C2)CC3)nc1 [Example 4.4],1000,> 500
COc1ccc(COc2ccc3c(c2)CN(C(=O)c2cccnc2)CC3)nc1 [Example 1.9],27.8,< 100
COc1ccc(COc2ccc3c(c2)CN(c2ccn(C)c(=O)c2)CC3)nc1 [Example 27.2],260,100 to 500
"COc1ccc(COC(=O)N2CCc3ccccc3C2)cn1 [Example 5, (6-Methoxypyridin-3-yl)methyl 1,2,3,4-tetrahydroisoquinoline-2-carboxylate]",1000,> 500
COc1ccc(COc2cnc3c(c2)CN(C(=O)c2cncc(OCCF)c2)CC3)nc1 [Example 1.18],65,< 100
"COc1ccc(C(=O)N(C)c2ccc3c(c2)CN(c2ccc(OC)nc2)CC3)nc1 [Example 17, 5-Methoxy-N-[2-(6-methoxypyridin-3-yl)-1,2,3,4-tetrahydroisoquinolin-7-yl]-N-methylpyridine-2-carboxamide]",333,100 to 500
"COc1ccc(COc2ccc3c(c2)CN(C(=O)c2ccc(=O)[nH]c2)CC3)nc1 [Example 39, 5-(7-((5-Methoxypyridin-2-yl)methoxy)-1,2,3,4-tetrahydroisoquinoline-2-carbonyl)pyridin-2(1H)-one]",12,< 100
COc1ccc(COc2ccc3c(c2)CN(C(=O)OCc2ccc(OC)nc2)CC3)nc1 [Example 5.1],1.65,< 100
COc1ccc(COc2ccc3c(c2)CN(C(C)=O)CC3)nc1 [Example 1.7],96.5,< 100
"COc1ccc(COc2ccc3c(c2)CN(C(=O)c2cn(C)c(=O)cn2)CC3)nc1 [Example 15, 5-{7-[(5-Methoxypyridin-2-yl)methoxy]-1,2,3,4-tetrahydroisoquinoline-2-carbonyl}-1-methyl-1,2-dihydropyrazin-2-one]",56.8,< 100
COc1ccc(COc2ccc3c(c2)CN(Cc2ccc(OC)nc2)CC3)nc1 [Example 7],137,100 to 500
"COc1ccc(COc2cnc3c(c2)CN(C(=O)c2ccc(-n4ccnc4)nc2)CC3)nc1 [Example 24, 6-[6-(1H-Imidazol-1-yl)pyridine-3-carbonyl]-3-[(5-methoxypyridin-2-yl)methoxy]-5,6,7,8-tetrahydro-1,6-naphthyridine]",2.06,< 100
COc1ccc(COc2ccc3c(c2)CN(C(=O)N2CCc4cc(OC)ncc4C2)CC3)nc1 [Example 4.3],3.67,< 100
COc1ccc(COc2ccc3c(c2)CN(C(=O)c2cncc(OC)c2)CC3)nc1 [Example 1.5],5.59,< 100
COc1ccc(COc2cnc3c(c2)CN(c2cncc(OC)c2)CC3)nc1 [Example 6.3],7.86,< 100
COc1ccc(COc2ccc3c(c2)CN(C(=O)c2ccc(C)nc2)CC3)nc1 [Example 1.25],2.91,< 100

# Other lines, results leading:
EC50 [1] [nM],EC50 [2] [nM],Structure (SMILES)
108,100 to 500,"COc1ccc(COc2ccc3c(c2)CN(C(=O)c2ccc(OC)nc2)C(C)C3)nc1 (stereo not drawn) [Example 31, 7-[(5-Methoxypyridin-2-yl)methoxy]-2-(6-methoxypyridine-3-carbonyl)-3-methyl-1,2,3,4-tetrahydroisoquinoline]"
–,< 100,COc1ccc(COc2ccc3c(c2)CN(C(=O)c2ccc(OC)nc2)CC3C)nc1 (stereo not drawn) [Example 28]
52.4,< 100,COc1ccc(C(=O)N2CCc3ccc(OCc4cnn(C)c4)cc3C2)cn1 [Example 1.27]
1.24,< 100,"COc1ccc(COc2ccc3c(c2)CN(C(=O)c2ccc(OC)nc2)CC3)nc1 [Example 1, 7-[(5-Methoxypyridin-2-yl)methoxy]-2-(6-methoxypyridine-3-carbonyl)-1,2,3,4-tetrahydroisoquinoline]"
34.1,< 100,COc1ccc(COc2cccc3c2CCN(C(=O)c2ccc(OC)nc2)C3)nc1 [Example 1.12]
3.01,< 100,C=CCOc1ccc(C(=O)N2CCc3ncc(OCc4ccc(OC)cn4)cc3C2)cn1 [Example 24.1]
5.73,< 100,COc1ccc(COc2cnc3c(c2)CN(C(=O)c2ccc(OC)nc2)CC3)nc1 [Example 1.16]
87.5,< 100,COc1ccc(COc2cccc3c2CN(C(=O)c2ccc(OC)nc2)CC3)nc1 [Example 1.13]
1000,> 500,"COc1ccc(OCc2cn3c(n2)CN(C(=O)c2ccc(OC)nc2)CC3)nc1 [Example 20, 5-Methoxy-2-{[7-(6-methoxypyridine-3-carbonyl)-5H,6H,7H,8H-imidazo[1,2-a]pyrazin-2-yl]methoxy}pyridine]"
4.45,< 100,COc1ccc(COc2cnc3c(c2)CN(C(=O)c2ccc(OCCF)nc2)CC3)nc1 [Example 24.3]
